Structures are written as SMILES.

One assay concerns the target T1, FLT-3 (Homo sapiens, UniProt P36888).
T1 construct: 0.02% BSA and 3 nM FLT-3
T1 sequence (P36888 27-993): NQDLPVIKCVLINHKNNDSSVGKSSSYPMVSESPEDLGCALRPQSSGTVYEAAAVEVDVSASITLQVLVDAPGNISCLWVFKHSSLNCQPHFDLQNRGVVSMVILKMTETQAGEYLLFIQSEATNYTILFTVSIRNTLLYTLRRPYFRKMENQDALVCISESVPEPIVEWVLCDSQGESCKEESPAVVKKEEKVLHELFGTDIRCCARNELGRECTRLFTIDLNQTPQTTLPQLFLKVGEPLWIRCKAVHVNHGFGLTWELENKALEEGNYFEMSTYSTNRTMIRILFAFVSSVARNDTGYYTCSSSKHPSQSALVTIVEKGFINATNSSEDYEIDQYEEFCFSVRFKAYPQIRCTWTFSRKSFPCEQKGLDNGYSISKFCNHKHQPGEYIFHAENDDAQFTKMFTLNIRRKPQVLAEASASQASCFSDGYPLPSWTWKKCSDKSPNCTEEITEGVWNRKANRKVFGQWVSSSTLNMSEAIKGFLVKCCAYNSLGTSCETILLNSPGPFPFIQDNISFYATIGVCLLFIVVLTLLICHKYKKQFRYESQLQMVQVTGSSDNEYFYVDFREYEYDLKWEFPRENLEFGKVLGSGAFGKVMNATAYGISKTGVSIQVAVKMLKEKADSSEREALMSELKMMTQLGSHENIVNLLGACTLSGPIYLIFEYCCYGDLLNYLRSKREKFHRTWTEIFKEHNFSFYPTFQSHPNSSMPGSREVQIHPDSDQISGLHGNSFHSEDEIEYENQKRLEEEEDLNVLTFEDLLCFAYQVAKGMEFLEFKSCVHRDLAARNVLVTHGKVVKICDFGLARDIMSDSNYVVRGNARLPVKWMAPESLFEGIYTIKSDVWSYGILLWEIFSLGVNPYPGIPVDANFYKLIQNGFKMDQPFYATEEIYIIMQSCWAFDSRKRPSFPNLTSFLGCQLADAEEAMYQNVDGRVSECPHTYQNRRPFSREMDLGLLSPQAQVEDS
The assay is described as follows: Inhibition of FLT-3, radiometric filter-binding assay. Type of assay: biochemical. The following applies: 90 μM ATP, 0.5 mg/mL pE4Y, room temperature. As to the method: Compounds were screened for their ability to inhibit FLT-3 activity using a radiometric filter-binding assay. This assay monitors the ^33P incorporation into a substrate poly(Glu, Tyr) 4:1 (pE4Y). Reactions were carried out in a solution containing 100 mM HEPES (pH 7.5), 10 mM MgCl2, 25 mM NaCl, 1 mM DTT, 0.01% BSA and 2.5% DMSO. Final substrate concentrations in the assay were 90 μM ATP and 0.5 mg/mL pE4Y (both from Sigma Chemicals, St Louis, Mo.). The final concentration of compounds is generally between 0.01 and 5 μM. Typically, a 12-point titration was conducted by preparing serial dilutions from 10 mM DMSO stock of test compound. Reactions were carried out at room temperature.
Two assay solutions were prepared. Solution 1 contains 100 mM HEPES (pH 7.5), 10 mM MgCl2, 25 mM NaCl, 1 mg/ml pE4Y and 180 μM ATP(containing 0.3 μCi of [γ-^33P]ATP for each reaction). Solution 2 contains 100 mM HEPES (pH 7.5), 10 mM MgCl2, 25 mM NaCl, 2 mM DTT, 0.02% BSA and 3 nM FLT-3. The assay was run on a 96 well plate by mixing 50 μL each of Solution 1 and […] of the test compounds. The reaction was initiated with Solution2. After incubation for 20 minutes at room temperature, the reaction was stopped with 50 μL of 20% TCA containing 0.4 mM of ATP. All of the reaction volume was then transferred to a filter plate and washed with 5% TCA by a Harvester9600 from TOMTEC (Hamden, Conn.). The amount of ^33P incorporation into pE4y was analyzed by a Packard TopCount Microplate Scintillation Counter (Meriden, Conn.). The data was fitted using Prism software to get an IC50 or Ki.

In the next assay the target is c-Met (Homo sapiens, UniProt P08581). The assay is described as follows: Ki determination for the inhibition of c-Met, coupled enzyme system. Type of assay: biochemical. The following applies: 200 μM ATP, 10 μM polyGluTyr, 80 nM c-Met, 30° C. Summed up:
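Coupled pyruvate kinase/lactate dehydrogenase NADH assay with 80 nM c-Met, 200 μM ATP, 10 μM polyGluTyr in pH 7.5 HEPES, 1.5% DMSO at 30° C. Compound (0.006–12.5 μM final, 12-point) preincubated 10 min; ATP started reaction, rates read over 10 min; Ki derived from rate versus inhibitor concentration.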

c-Met, sequence (P08581 25-1390): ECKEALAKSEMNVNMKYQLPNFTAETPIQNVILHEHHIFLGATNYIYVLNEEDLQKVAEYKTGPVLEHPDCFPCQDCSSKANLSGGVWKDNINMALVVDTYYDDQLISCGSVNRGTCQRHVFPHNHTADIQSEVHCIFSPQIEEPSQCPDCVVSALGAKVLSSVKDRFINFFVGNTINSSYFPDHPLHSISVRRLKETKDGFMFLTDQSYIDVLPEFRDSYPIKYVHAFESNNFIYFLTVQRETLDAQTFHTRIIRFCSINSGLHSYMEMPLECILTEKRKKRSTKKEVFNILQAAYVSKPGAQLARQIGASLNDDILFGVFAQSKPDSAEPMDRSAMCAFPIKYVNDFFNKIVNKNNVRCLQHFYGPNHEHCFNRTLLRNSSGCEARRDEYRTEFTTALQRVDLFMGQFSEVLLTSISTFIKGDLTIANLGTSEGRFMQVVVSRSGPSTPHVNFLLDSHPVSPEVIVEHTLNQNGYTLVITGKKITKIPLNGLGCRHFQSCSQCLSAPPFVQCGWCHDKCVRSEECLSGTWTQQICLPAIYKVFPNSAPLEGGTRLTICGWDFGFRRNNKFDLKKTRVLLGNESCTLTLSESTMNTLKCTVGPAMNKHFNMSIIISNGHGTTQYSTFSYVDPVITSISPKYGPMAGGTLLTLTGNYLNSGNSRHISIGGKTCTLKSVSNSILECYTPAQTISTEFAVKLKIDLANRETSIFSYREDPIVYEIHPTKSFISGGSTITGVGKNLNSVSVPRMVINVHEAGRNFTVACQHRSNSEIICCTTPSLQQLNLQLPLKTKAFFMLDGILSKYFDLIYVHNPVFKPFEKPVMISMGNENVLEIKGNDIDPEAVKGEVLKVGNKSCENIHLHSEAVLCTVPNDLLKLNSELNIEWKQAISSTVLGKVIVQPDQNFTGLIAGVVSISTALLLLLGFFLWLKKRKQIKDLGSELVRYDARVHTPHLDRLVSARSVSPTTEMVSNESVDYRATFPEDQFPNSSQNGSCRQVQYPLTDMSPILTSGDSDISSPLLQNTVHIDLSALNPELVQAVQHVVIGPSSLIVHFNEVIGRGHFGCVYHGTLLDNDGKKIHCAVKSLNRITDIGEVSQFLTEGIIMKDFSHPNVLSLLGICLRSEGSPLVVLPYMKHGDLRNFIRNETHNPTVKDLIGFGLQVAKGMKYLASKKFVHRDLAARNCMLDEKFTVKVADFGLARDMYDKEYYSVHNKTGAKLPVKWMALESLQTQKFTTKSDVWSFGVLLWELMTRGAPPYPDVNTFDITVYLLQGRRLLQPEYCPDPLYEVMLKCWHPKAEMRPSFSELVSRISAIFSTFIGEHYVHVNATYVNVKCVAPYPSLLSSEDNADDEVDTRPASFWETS

As to `Fc1cccc(-c2cnoc2-c2c[nH]c3ncc(-c4ccncc4)cc23)c1F` [Compound 57, 3-[4-(2,3-Difluoro-phenyl)-isoxazol-5-yl]-5-pyridin-4-yl-1H-pyrrolo[2,3-b]pyridine], the Ki on FLT-3 and at c-Met was below 200 nM throughout.

As to `Fc1cccc(-c2cnoc2-c2c[nH]c3ncccc23)c1F` [Compound 1, 3-[4-(2,3-Difluoro-phenyl)-isoxazol-5-yl]-1H-pyrrolo[2,3-b]pyridine], the values for the Ki on FLT-3 and at c-Met were 200 to 1000 nM and below 200 nM, respectively.

Turning to `COc1cnc2[nH]cc(-c3oncc3-c3cccc(F)c3F)c2c1` [Compound 38, 3-[4-(2,3-Difluoro-phenyl)-isoxazol-5-yl]-5-methoxy-1H-pyrrolo[2,3-b]pyridine], the Ki on FLT-3 and on c-Met was below 200 nM throughout.

As to `Nc1[nH]c2ncccc2c1-c1oncc1-c1cccc(F)c1F` [Compound 152], the Ki at FLT-3 and at c-Met was 1000 to 12500 nM each time.

For the compound `CS(=O)(=O)Nc1ccc(-c2cnc3[nH]cc(-c4oncc4-c4cccc(F)c4F)c3c2)cc1` [Compound 98, N-(4-{3-[4-(2,3-Difluoro-phenyl)-isoxazol-5-yl]-1H-pyrrolo[2,3-b]pyridin-5-yl}-phenyl)-methane sulfonamide], the Ki at FLT-3 and at c-Met was below 200 nM in each case.

Take `COC(=O)c1cnc2[nH]cc(-c3oncc3-c3cccc(F)c3F)c2c1` [Compound 105, 3-[4-(2,3-Difluoro-phenyl)-isoxazol-5-yl]-1H-pyrrolo[2,3-b]pyridine-5-carboxylic acid methyl ester]: the Ki on FLT-3 and at c-Met was below 200 nM in each case.

In the case of `Fc1cccc(-c2cnoc2-c2c[nH]c3ncc(-c4ccccn4)cc23)c1F` [Compound 73, 3-(4-(2,3-Difluoro-phenyl)-isoxazol-5-yl)-5-pyridin-2-yl-1H-pyrrolo[2,3-b]pyridine], the values for the inhibitory constant (Ki) on FLT-3 and at c-Met were 200 to 1000 nM and below 200 nM, respectively.

With `Oc1cccc(-c2cnc3[nH]cc(-c4oncc4-c4cccc(F)c4F)c3c2)c1` [Compound 87, 3-{3-[4-(2,3-Difluoro-phenyl)-isoxazol-5-yl]-1H-pyrrolo [2,3-b]pyridin-5-yl}-phenol], the inhibition constant (Ki) on FLT-3 and at c-Met was below 200 nM each time.

For the compound `CN(C)Cc1ccc(-c2cnc3[nH]cc(-c4oncc4-c4cccc(F)c4F)c3c2)cc1` [Compound 91, (4-{3-[4-(2,3-Difluoro-phenyl)-isoxazol-5-yl]-1H-pyrrolo[2,3-b]pyridin-5-yl}-benzyl)-dimethyl-amine], the Ki at FLT-3 and at c-Met was below 200 nM each time.

Regarding `CN(C)C1CC=C(c2cnc3[nH]cc(-c4oncc4-c4cccc(F)c4F)c3c2)CC1` (stereo not shown) [Compound 138, (4-{3-[4-(2,3-Difluoro-phenyl)-isoxazol-5-yl]-1H-pyrrolo[2,3-b]pyridin-5-yl}-cyclohex-3-enyl)-dimethyl-amine], the Ki at FLT-3 and on c-Met was below 200 nM in each case.

With `Fc1cccc(-c2cnoc2-c2c[nH]c3ncc(-c4c[nH]cn4)cc23)c1F` [Compound 76, 3-[4-(2,3-Difluoro-phenyl)-isoxazol-5-yl]-5-(3H-imidazol-4-yl)-1H-pyrrolo[2,3-b]pyridine], the Ki on FLT-3 and on c-Met was below 200 nM throughout.

Consider `CN1CCCN(c2ccc(-c3cnc4[nH]cc(-c5nncn5-c5cccc(F)c5F)c4c3)cn2)CC1` [Compound 117, 3-[4-(2,3-Difluoro-phenyl)-4H-[1,2,4]triazol-3-yl]-5-[6-(4-methyl-[1,4]diazepan-1-yl)-pyridin-3-yl]-1H-pyrrolo [2,3-b]-pyridine], for which the Ki (commonly the equilibrium dissociation constant of an inhibitor or competing ligand from its target) on FLT-3 is 200 to 1000 nM; at c-Met, below 200 nM.

As for `Fc1c(Cl)cccc1-c1cnoc1-c1c[nH]c2ncccc12` [Compound 42, 3-[4-(3-Chloro-2-fluoro-phenyl)-isoxazol-5-yl]-1H-pyrrolo[2,3-b]pyridine], the Ki at FLT-3 was 1000 to 12500 nM; on c-Met it was below 200 nM.

As for `CN(C)Cc1cc(Cl)nc(-c2cnc3[nH]cc(-c4oncc4-c4cccc(F)c4F)c3c2)c1` [Compound 81, (2-Chloro-6-{3-[4-(2,3-difluoro-phenyl)-isoxazol-5-yl]-1H-pyrrolo[2,3-b]pyridin-5-yl}-pyridin-4-ylmethyl)-dimethyl-amine], the values for the Ki on FLT-3 and at c-Met were 200 to 1000 nM and below 200 nM, respectively.

For `Oc1cnc2[nH]cc(-c3oncc3-c3cccc(F)c3F)c2c1` [Compound 43, 3-[4-(2,3-Difluoro-phenyl)-isoxazol-5-yl]-1H-pyrrolo[2,3-b]pyridin-5-ol], the Ki was 200 to 1000 nM on FLT-3 and below 200 nM at c-Met.

Consider `CN1CCN(c2ccc(-c3cnc4[nH]cc(-c5oncc5-c5cccc(F)c5F)c4c3)cn2)CC1` [Compound 71, 3-[4-(2,3-Difluoro-phenyl)-isoxazol-5-yl]-5-[6-(4-methyl-piperazin-1-yl)-pyridin-3-yl]-1H-pyrrolo[2,3-b]pyridine], for which the inhibitory constant (Ki) on FLT-3 and at c-Met was below 200 nM in each case.

Regarding `Fc1cccc(-c2cnoc2-c2c[nH]c3ncc(-c4ncccn4)cc23)c1F` [Compound 75, 3-[4-(2,3-Difluoro-phenyl)-isoxazol-5-yl]-5-pyrimidin-2-yl-1H-pyrrolo[2,3-b]pyridine], the Ki at FLT-3 is 200 to 1000 nM; on c-Met, below 200 nM.

As to `Fc1ccc(-c2cnc3[nH]cc(-c4oncc4-c4cccc(F)c4F)c3c2)cn1` [Compound 69, 3-[4-(2,3-Difluoro-phenyl)-isoxazol-5-yl]-5-(6-fluoro-pyridin-3-yl)-1H-pyrrolo[2,3-b]pyridine], the Ki is 200 to 1000 nM on FLT-3 and below 200 nM on c-Met.

On to `Fc1cccc(-c2cnoc2-c2c[nH]c3ncc(C4=CCC(N5CCOCC5)CC4)cc23)c1F` (stereo not shown) [Compound 139, 3-[4-(2,3-Difluoro-phenyl)-isoxazol-5-yl]-5-(4-morpholin-4-yl-cyclohex-1-enyl)-1H-pyrrolo[2,3-b]pyridine], for which the Ki on FLT-3 and at c-Met was below 200 nM throughout.

As for `Fc1cccnc1-c1cnc2[nH]cc(-c3oncc3-c3cccc(F)c3F)c2c1` [Compound 74, 3-[4-(2,3-Difluoro-phenyl)-isoxazol-5-yl]-5-(3-fluoro-pyridin-2-yl)-1H-pyrrolo[2,3-b]pyridine], the Ki was 1000 to 12500 nM at FLT-3 and below 200 nM at c-Met.

Regarding `CN1CCC(c2cnc3[nH]cc(-c4oncc4-c4cccc(F)c4F)c3c2)CC1` [Compound 60, 3-[4-(2,3-Difluoro-phenyl)-isoxazol-5-yl]-5-(1-methyl-piperidin-4-yl)-1H-pyrrolo[2,3-b]pyridine], the Ki at FLT-3 was 1000 to 12500 nM; at c-Met it was below 200 nM.

Consider `Fc1cccc(-c2cnoc2-c2c[nH]c3ncc(-c4ccccc4)cc23)c1F` [Compound 58, 3-[4-(2,3-Difluoro-phenyl)-isoxazol-5-yl]-5-phenyl-1H-pyrrolo[2,3-b]pyridine], for which the Ki at FLT-3 is 200 to 1000 nM; at c-Met, below 200 nM.

For `NC1CC=C(c2cnc3[nH]cc(-c4oncc4-c4cccc(F)c4F)c3c2)CC1` (stereo not shown) [Compound 137, 4-{3-[4-(2,3-Difluoro-phenyl)-isoxazol-5-yl]-1H-pyrrolo [2,3-b]pyridin-5-yl}-cyclohex-3-enylamine], the Ki on FLT-3 and on c-Met was below 200 nM throughout.
